# According to patent US6706663B2, “Herbicidal 3-heterocyclic substituted benzisothiazole and benzisoxazole compounds” (Wyeth, priority 2000, dated 2004):
# Assays:
# [1] = system: ECHORC (Echinochloa oryzoides); assay: Flooded paddy, postemergence weed control; format: in vivo, Echinochloa oryzoides (Ard.) Fritsch.; settings: postemergence weeds, rated 3-4 weeks after treatment
# Outline: (§1)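 Flood water 1.5-3 cm deep throughout; test compound dosed into it as 50/50 v/v aqueous/acetone, ~0.0320-0.2500 kg/ha ai. Plants: weeds 3-5 cm tall, rice seedlings 1.5-2.5 leaf. Read-out 3-4 wk later, visual 0-9 vs control.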
# [2] = system: ORYSAT (Rice, Tebonnet); assay: Flooded paddy, post-transplant and postemergence rice tolerance; format: in vivo, Oryza sativa, (L.) Tebonnet; settings: post-transplant rice, rated 3-4 weeks after treatment
# Outline: as §1
# [3] = system: ABUTH (Abutilon theophrasti); assay: Postemergence herbicidal evaluation; format: in vivo, Medic.
# Outline: (§2)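 Seedlings grown about two weeks in flats, sprayed, then kept under standard greenhouse care. Rated visually 4–5 weeks after treatment on a 0–9 scale (stand, vigour, malformation, size, chlorosis, overall appearance) relative to untreated control; repeat tests averaged.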
# [4] = system: ZEAMX (Corn, Field); assay: Postemergence herbicidal evaluation; format: in vivo, Zea mays, L.
# Outline: as §2
# [5] = system: AMBEL (Ambrosia artemisifolia); assay: Postemergence herbicidal evaluation; format: in vivo, L.
# Outline: as §2
# [6] = system: CHEAL (Chenopodium album); assay: Postemergence herbicidal evaluation; format: in vivo, L.
# Outline: as §2
# [7] = system: CASOB (Cassia obtusifolia); assay: Postemergence herbicidal evaluation; format: in vivo, L.
# Outline: as §2
# [8] = system: ORYSAT (Rice, Tebonnet); assay: Postemergence herbicidal evaluation; format: in vivo, Oryza sativa, (L.) Tebonnet
# Outline: as §2
# [9] = system: ECHCG (Echinochloa crus-galli); assay: Preemergence herbicidal evaluation; format: in vivo, (L.) Beau; settings: preemergence, rated 4-5 weeks after treatment
# Outline: (§3)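 Applied before emergence as an aqueous acetone spray over seeded soil. Read-out: 0–9 visual rating covering plant stand, vigor, size, chlorosis, malformation and overall appearance compared with control, taken 4–5 weeks after spraying.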
# [10] = system: SETVI (Setaria viridis); assay: Preemergence herbicidal evaluation; format: in vivo, (L.) Beau; settings: preemergence, rated 4-5 weeks after treatment
# Outline: as §3
# [11] = system: SAGPY (Sagittaria pygmaea); assay: Flooded paddy, postemergence weed control; format: in vivo, L.; settings: postemergence weeds, rated 3-4 weeks after treatment
# Outline: as §1
# [12] = system: GALAP (Galium aparine); assay: Postemergence herbicidal evaluation; format: in vivo
# Outline: as §2
# [13] = system: TRZAWR (Wheat, Winter, cv Riband); assay: Preemergence herbicidal evaluation; format: in vivo, Triticum aestivum; settings: preemergence, rated 4-5 weeks after treatment
# Outline: as §3
# [14] = system: IPOHE (Ipomoea hederacea); assay: Postemergence herbicidal evaluation; format: in vivo, (L.) Jacq.
# Outline: as §2
# [15] = system: CYPSE (Cyperus serotinus); assay: Flooded paddy, postemergence weed control; format: in vivo, Rottb.; settings: postemergence weeds, rated 3-4 weeks after treatment
# Outline: as §1
# [16] = system: GLXMAW (Soybean, Williams); assay: Postemergence herbicidal evaluation; format: in vivo, Glycine max, (L.) Merr. cv Williams
# Outline: as §2
# [17] = system: GALAP (Galium aparine); assay: Preemergence herbicidal evaluation; format: in vivo; settings: preemergence, rated 4-5 weeks after treatment
# Outline: as §3
# [18] = system: CYPIR (Cyperus iria); assay: Flooded paddy, postemergence weed control; format: in vivo; settings: postemergence weeds, rated 3-4 weeks after treatment
# Outline: as §1
# [19] = system: MOOVA (Monochoria vaginalis); assay: Flooded paddy, postemergence weed control; format: in vivo, Presl.; settings: postemergence weeds, rated 3-4 weeks after treatment
# Outline: as §1
# [20] = system: ORYSAT (Rice, Tebonnet); assay: Preemergence herbicidal evaluation; format: in vivo, Oryza sativa, (L.) Tebonnet; settings: preemergence, rated 4-5 weeks after treatment
compound,measurement,setting,value
"Cc1cscc1-c1nsc2ccc(-n3c(=O)cc(C(F)(F)F)n(C)c3=O)cc12 [Compound 26, 1-methyl-3-[3-(4-methyl-3-thienyl)-1,2-benzisothiazol-5-yl]-6-(trifluoromethyl)uracil]",herbicide rating (0-9) ECHORC,[1]; 0.0320 kg/ha into flood water,7.0
same,herbicide rating (0-9) ECHORC,[1]; 0.0620 kg/ha into flood water,9.0
same,herbicide rating (0-9) ECHORC,[1]; 0.1250 kg/ha into flood water,9.0
same,herbicide rating (0-9) ORYSAT (rice tolerance),[2]; 0.0320 kg/ha into flood water,4.0
same,herbicide rating (0-9) ORYSAT (rice tolerance),[2]; 0.0620 kg/ha into flood water,5.0
same,herbicide rating (0-9) ORYSAT (rice tolerance),[2]; 0.1250 kg/ha into flood water,6.0
same,"Postemergence herbicidal rating, ABUTH",[3]; rate 0.0320 kg/ha,9.0
same,"Postemergence herbicidal rating, ABUTH",[3]; rate 0.0620 kg/ha,9.0
same,"Postemergence herbicidal rating, ZEAMX",[4]; rate 0.0320 kg/ha,5.0
same,"Postemergence herbicidal rating, ZEAMX",[4]; rate 0.0620 kg/ha,5.5
same,"Postemergence herbicidal rating, AMBEL",[5]; rate 0.0320 kg/ha,9.0
same,"Postemergence herbicidal rating, AMBEL",[5]; rate 0.0620 kg/ha,9.0
same,"Postemergence herbicidal rating, CHEAL",[6]; rate 0.0320 kg/ha,7.0
same,"Postemergence herbicidal rating, CHEAL",[6]; rate 0.0620 kg/ha,9.0
same,"Postemergence herbicidal rating, CASOB",[7]; rate 0.0320 kg/ha,4.0
same,"Postemergence herbicidal rating, CASOB",[7]; rate 0.0620 kg/ha,9.0
same,"Postemergence herbicidal rating, ORYSAT",[8]; rate 0.0320 kg/ha,3.5
same,"Postemergence herbicidal rating, ORYSAT",[8]; rate 0.0620 kg/ha,4.5
same,ECHCG preemergence herbicidal rating,[9]; Rate 0.0620 kg/ha,6.5
same,ECHCG preemergence herbicidal rating,[9]; Rate 0.1250 kg/ha,9.0
same,ECHCG preemergence herbicidal rating,[9]; Rate 0.2500 kg/ha,9.0
same,SETVI preemergence herbicidal rating,[10]; Rate 0.0620 kg/ha,9.0
same,SETVI preemergence herbicidal rating,[10]; Rate 0.1250 kg/ha,9.0
same,SETVI preemergence herbicidal rating,[10]; Rate 0.2500 kg/ha,9.0
same,herbicide rating (0-9) SAGPY,[11]; 0.0320 kg/ha into flood water,0.0
same,herbicide rating (0-9) SAGPY,[11]; 0.0620 kg/ha into flood water,0.0
same,herbicide rating (0-9) SAGPY,[11]; 0.1250 kg/ha into flood water,0.0
same,"Postemergence herbicidal rating, GALAP",[12]; rate 0.0320 kg/ha,5.0
same,"Postemergence herbicidal rating, GALAP",[12]; rate 0.0620 kg/ha,6.0
same,TRZAWR preemergence herbicidal rating,[13]; Rate 0.0620 kg/ha,2.0
same,TRZAWR preemergence herbicidal rating,[13]; Rate 0.1250 kg/ha,3.0
same,TRZAWR preemergence herbicidal rating,[13]; Rate 0.2500 kg/ha,7.0
same,"Postemergence herbicidal rating, IPOHE",[14]; rate 0.0320 kg/ha,9.0
same,"Postemergence herbicidal rating, IPOHE",[14]; rate 0.0620 kg/ha,9.0
same,herbicide rating (0-9) CYPSE,[15]; 0.0320 kg/ha into flood water,7.0
same,herbicide rating (0-9) CYPSE,[15]; 0.0620 kg/ha into flood water,7.0
same,herbicide rating (0-9) CYPSE,[15]; 0.1250 kg/ha into flood water,7.0
same,"Postemergence herbicidal rating, GLXMAW",[16]; rate 0.0320 kg/ha,6.0
same,"Postemergence herbicidal rating, GLXMAW",[16]; rate 0.0620 kg/ha,6.5
same,GALAP preemergence herbicidal rating,[17]; Rate 0.0620 kg/ha,7.0
same,GALAP preemergence herbicidal rating,[17]; Rate 0.1250 kg/ha,7.0
same,GALAP preemergence herbicidal rating,[17]; Rate 0.2500 kg/ha,9.0
same,herbicide rating (0-9) CYPIR,[18]; 0.0320 kg/ha into flood water,9.0
same,herbicide rating (0-9) CYPIR,[18]; 0.0620 kg/ha into flood water,9.0
same,herbicide rating (0-9) CYPIR,[18]; 0.1250 kg/ha into flood water,9.0
same,herbicide rating (0-9) MOOVA,[19]; 0.0320 kg/ha into flood water,4.0
same,herbicide rating (0-9) MOOVA,[19]; 0.0620 kg/ha into flood water,4.0
same,herbicide rating (0-9) MOOVA,[19]; 0.1250 kg/ha into flood water,6.0
same,ORYSAT preemergence herbicidal rating,[20]; Rate 0.0620 kg/ha,2.0
same,ORYSAT preemergence herbicidal rating,[20]; Rate 0.1250 kg/ha,3.0
same,ORYSAT preemergence herbicidal rating,[20]; Rate 0.2500 kg/ha,5.5
